According to US20180213796A1, “PLANT DISEASE CONTROL COMPOSITION AND PLANT DISEASE CONTROL METHOD” (SUMITOMO CHEMICAL COMPANY, LIMITED, priority 2015, published 2018):

Legend:
[1] = tested on: damping-off fungus (Rhizoctonia solani); experiment: Test Example 14: corn seed treatment, pot test in soil mixed with damping-off fungus, control value; format: in vivo; details: corn seeds, 20 days after
Description: In a rotary seed treatment machine (trade name: HEGE11, manufactured by […]), corn seeds (variety: yellow dent corn) were treated by smearing treatment using a flowable formulation of the present bacterial strain as obtained in Formulation Example 19, metconazole flowable formulation (40.0% flowable formulation, trade name: Metolock Fungicide, Valent U.S.A. Corporation), a chemical liquid prepared by dissolving tebuconazole in acetone/Tween 20 (weight ratio=95:5) and diluting with water, a chemical liquid prepared by dissolving prothioconazole in acetone/Tween 20 (weight ratio=95:5) and diluting with water, a chemical liquid prepared by dissolving difenoconazole in acetone/Tween 20 (weight ratio=95:5) and diluting with water, a chemical liquid prepared by dissolving triticonazole in acetone/Tween 20 (weight ratio=95:5) and diluting with water, a chemical liquid prepared by dissolving triadimenol in acetone/Tween 20 (weight ratio=95:5) and diluting with water, a chemical liquid prepared by dissolving bromconazole in acetone/Tween 20 (weight ratio=95:5) and diluting with water, so that the soybean seeds retain the present bacterial strain and the compound in the amount shown in Table 4.
Cultivation was carried out in a greenhouse under irrigation (“treated compartment”). The plants were investigated 20 days after for the number of diseased plants, and the disease incidence was calculated by the following “Equation 1”. […] The plants were investigated 20 days after for the number of diseased plants, and the disease incidence was calculated by the following “Equation 1”. The control value of the treated compartment was calculated by the following equation “Equation 2”, based on the disease incidences of the treated compartment and the untreated compartment.
Disease incidence (%)=100×(number of diseased plant/total number of seeded seeds) Equation 1
Control value (%)=100×[(disease incidence in untreated compartment−disease incidence in treated compartment)/disease incidence in untreated compartment] Equation 2 […]

[2] = tested on: damping-off fungus (Rhizoctonia solani); experiment: Test Example 15: soybean seed treatment, pot test in soil mixed with damping-off fungus, control value; format: in vivo; details: soybean seeds, 20 days after
Description: In a rotary seed treatment machine (trade name: HEGE11, manufactured by WINTERSTEIGER), soybean seeds (variety: “Hatayutaka”) were treated by smearing treatment using the flowable formulation of the present bacterial strain obtained in Formulation Example 19 and a chemical liquid wherein ipconazole was dissolved in acetone/Tween 20 (weight ratio=95:5) and diluted with water, so that the soybean seeds retain the present bacterial strain and the compound in the amount shown in Table 5.
Cultivation was carried out in a greenhouse under irrigation (“treated compartment”). The plants were investigated 20 days after for the number of diseased plants, and the disease incidence was calculated by the following “Equation 1”. Also, similar procedures were conducted using untreated soybean seeds, instead of the treated soybean seeds, as described above for the treated compartment (“untreated compartment”). The plants were investigated 20 days after for the number of diseased plants, and the disease incidence was calculated by the following “Equation 1”. The control value of the treated compartment was calculated by the following equation “Equation 2”, based on the disease incidences of the treated compartment and the untreated compartment.
Disease incidence (%)=100×(number of diseased plant/total number of seeded seeds) Equation 1 […]

[3] = compound alone 0.005 g/Kg seeds

Structure (SMILES)	Controlling Effect (control value) [1, 3] [%]	Controlling Effect (control value) ([1]; compound alone 0.01 g/Kg seeds) [%]	further results
CC1(C)CCC(Cc2ccc(Cl)cc2)C1(O)Cn1cncn1 (stereo not shown) [Metconazole]			Controlling Effect (control value) ([1]; compound alone 0.0005 g/Kg seeds): 25%; Controlling Effect (control value) ([1]; compound alone 0.001 g/Kg seeds): 33%
CC1(C)CCC(=Cc2ccc(Cl)cc2)C1(O)Cn1cncn1 (stereo not shown) [Triticonazole]	17	25	
CC(C)C1CCC(Cc2ccc(Cl)cc2)C1(O)Cn1cncn1 (stereo not shown) [Ipconazole]			Controlling Effect (control value) [2, 3]: 27%; Controlling Effect (control value) ([2]; compound alone 0.01 g/Kg seeds): 33%
CC(C)(C)C(O)(CCc1ccc(Cl)cc1)Cn1cncn1 (stereo not shown) [Tebuconazole]		25	Controlling Effect (control value) ([1]; compound alone 0.02 g/Kg seeds): 33%
CC1COC(Cn2cncn2)(c2ccc(Oc3ccc(Cl)cc3)cc2Cl)O1 (stereo not shown) [Difenoconazole]	58		Controlling Effect (control value) ([1]; compound alone 0.0025 g/Kg seeds): 33%
OC(Cc1ccccc1Cl)(Cn1nc[nH]c1=S)C1(Cl)CC1 (stereo not shown) [Prothioconazole]	42	50	
Clc1ccc(C2(Cn3cncn3)CC(Br)CO2)c(Cl)c1 (stereo not shown) [Bromconazole]	17	33	
CC(C)(C)C(O)C(Oc1ccc(Cl)cc1)n1cncn1 (stereo not shown) [Triadimenol]	33	42	
